Test results from patent US8609410B2 (priority 2005, dated 2013).

Assays:
Assay type in all cases: cell-based, human
[1] = test system: A27L-specific CD8+ CTLs; assay: Induction of A27L-specific CD8+ CTLs by washed pulsed immature dendritic cells co-cultured with lymphocytes (tetramer flow cytometry)
Description: (§1) As a negative control, dendritic cells that were cultured without adding ZOMETA™ or the antigenic peptides were used.
After about 12 hours of culture, part of the activated dendritic cells that were co-pulsed with ZOMETA™ and the antigenic peptides were collected, placed in a 15 ml tube (BD Falcon) and centrifuged at 1500 rpm for 5 minutes. The resultant dendritic cells in the form of pellets were suspended in 10 ml of an AIM-V medium supplemented with 10% FBS and centrifuged at 1500 rpm for 5 minutes, followed by washing. The washing operation was repeated twice. The dendritic cells collected in this manner were used as stimulating cells. In other words, the activated dendritic cells that were co-pulsed with bisphosphonate and the disease antigenic peptides, the dendritic cells that were pulsed with either of them and the dendritic cells that were not pulsed with any of them were used as stimulating cells. […]
After dyeing in a shielded state at room temperature for 15 minutes, an anti-CD8 antibody that was labeled with FITC (BD Pharmingen) was added, followed by dyeing in a shielded state at 4° C. for 15 minutes. […] The cells were measured using EPICS XL.MCL, and the results of measurement were analyzed using EPICS 32.

[2] = test system: IFN-γ producing cells; assay: IFN-γ ELISPot of co-cultured immunocytes
Description: 70% ethanol was added to each well of MultiScreen plate (MILLIPORE) and removed within 2 minutes. Each well of the above-noted plate was washed five times in 200 μl of PBS. […] This plate was left overnight at 4° C. This plate was washed four times in 200 μl/well of PBS. Then, 200 μl of an AIM-V medium supplemented with 10% FBS was added in each well, followed by blocking at room temperature for at least 30 minutes. The blocking medium was removed, and the plate was washed four times in 200 μl/well of PBS. A co-cultured cell population in each condition obtained by a method similar to the above-described co-culture was collected by centrifugation and washed twice in AIM-V.
The number of cells indicates the number per well of an assay plate. […] The culture volume was adjusted to be 100 μl per well. For each culture condition, 300 μl of culture, which corresponds to 3 wells, was performed. 100 μl per well of the cells pre-cultured under each condition was added into 3 wells in the plate that had been washed in PBS after blocking, and cultured overnight at 37° C. under a condition of 5% CO2. The cultured cells were removed from the wells and washed five times in 200 μl/well of PBS. […] The plate was allowed to stand still at room temperature for 2 hours. This plate was washed five times in 200 μl/well of PBS. Streptavidin to which alkaline phosphatase was bound (MABTECH ELISPot™ for Human Interferon-γ kit) was diluted with PBS supplemented with 0.5% FBS so that 1:1000, and 100 μl thereof per well was added. The plate was left at room temperature for 1 hour. This plate was washed five times in 200 μl/well of PBS. Then, 100 μl of BCIP/NBTplus substrate solution (Wako) was added per well, which was left in a dark place until spots became visible. When the spots became visible to the naked eye, the plate was washed sufficiently in distilled water. After checking that a membrane in the plate is dry, the number of spots were measured using ELISPot™ reader (AID Autoimmun Diagnostika GmbH), and the data were analyzed with AID software version 3.1 (AID).

[3] = test system: A27L antigen-specific CD8+ CTLs; assay: Induction of A27L-specific CD8+ CTLs by dendritic cells co-pulsed with ZOMETA and apoptotic melanoma cells
Description: From a healthy donor, 200 ml of peripheral blood was collected. Mononuclear cells were obtained from this peripheral blood of the healthy donor. At this time, a mononuclear cell layer was collected using a density gradient solution for blood cell separation. After several times of washing in order to remove platelets, etc. from the collected cells, CD14-positive cells were isolated as monocytes with MACS. From the obtained dendritic cell precursors, differentiation induction of dendritic cells was carried out. The medium was prepared by adding 500 U/ml of GM-CSF (IMMUNEX) and 500 U/ml of IL-4 (Osteogenetics GmbH) to AIM-V supplemented with 10% FBS. On day 5 to day 7 after starting culture, immature dendritic cells were obtained.
A cancer cell line derived from MART-1-positive melanoma was collected, placed in a 15 ml tube (BD Falcon) and centrifuged at 1500 rpm for 5 minutes. […]
Using the number of all lymphocytes that were proliferated 7, 11 and 14 days after the start of co-culture, a labeled antibody and an antigen-specific tetramer, the ratio of the antigen-specific CD8+ CTLs in all of the lymphocytes was measured with a flow cytometer. […] The cells were measured using EPICS XL.MCL, and the results of measurement were analyzed using EPICS 32.

[4] = test system: A27L-specific CD8+ CTLs; assay: Induction of A27L-specific CD8+ CTLs by artificial antigen-presenting cells MDA-MB/CD80 co-pulsed with ZOMETA and A27L; conditions: co-pulse 0.01 μM or 1 μM ZOMETA and 2 μg/ml A27L
Description: A human CD80 gene, which was a co-stimulatory molecule, was transfected by a lipofection method in a breast cancer-derived cell line: MDA-MB-231 (class I antigen HLA-A*0201) expressing MHC class I molecules, thus establishing a cell line MDA-MB/CD80 expressing human CD80 stably and constantly in MDA-MB-231 cells.
As a negative control, MDA-MB/CD80 cells that were cultured without adding ZOMETA™ or the antigenic peptides were used.
After about 12 hours of culture, part of the activated MDA-MB/CD80 cells that were co-pulsed with ZOMETA™ and the antigenic peptides were collected, placed in a 15 ml tube (BD Falcon) and centrifuged at 1500 rpm for 5 minutes. The resultant MDA-MB/CD80 cells in the form of pellets were suspended in 10 ml of an AIM-V medium supplemented with 10% FBS and centrifuged at 1500 rpm for 5 minutes, followed by washing. The washing operation was repeated twice. The MDA-MB/CD80 cells collected in this manner were used as stimulating cells. In other words, the activated MDA-MB/CD80 cells that were co-pulsed with bisphosphonate and the disease antigenic peptides, the MDA-MB/CD80 cells that were pulsed with either of them and the MDA-MB/CD80 cells that were not pulsed with any of them were used as stimulating cells. […]

[5] = test system: BMLF1-specific CD8+ CTLs; assay: Induction of BMLF1-specific CD8+ CTLs by dendritic cells co-pulsed with ZOMETA and BMLF1; conditions: for The number of CTLs / The total number of cells / Ratio of CTLs (%): BMLF1 2 μg/ml; for Ratio of CTLs (%): immature dendritic cells, 7 days
Description: as §1
After about 12 hours of the culture, part of the activated dendritic cells that were co-pulsed with ZOMETA™ and the antigenic peptides were collected, placed in a 15 ml tube (BD Falcon) and centrifuged at 1500 rpm for 5 minutes. The resultant dendritic cells in the form of pellets were suspended in 10 ml of an AIM-V medium supplemented with 10% FBS and centrifuged at 1500 rpm for 5 minutes, followed by washing. The washing operation was repeated twice. The dendritic cells collected in this manner were used as stimulating cells. In other words, the activated dendritic cells that were co-pulsed with bisphosphonate and the disease antigenic peptides, the dendritic cells that were pulsed with either of them and the dendritic cells that were not pulsed with any of them were used as stimulating cells. Cells prepared by suspending those (a CD14-negative cell population, which was mainly a T cell population) remaining after isolation of the CD14-positive cells for preparing the dendritic cells in an AIM-V medium supplemented with 10% FBS and 10% dimethyl sulfoxide (DMSO), and freeze-preserving them were thawed, washed and used as responding cells. 1×10^5 each of the obtained stimulating cells (dendritic cells) were cultured with 1×10^6 responding cells such that the total amount was 1 ml in a 48-well plate (CORNING) (responding cells:dendritic cells=10:1). The co-culture was carried out at about 37° C. under a condition of 5% CO2 for 7 days. […] In the case where the cells were proliferated rapidly, 1 ml of an AIM-V medium supplemented with 40 U/ml of IL-2 and 10% FBS was added on day 4 to day 6.
After dyeing in a shielded state at room temperature for 15 minutes, an anti-CD8 antibody that was labeled with FITC (BD Pharmingen) was added, followed by dyeing in a shielded state at 4° C. for 15 minutes. As a control, an isotype of each of the antibodies was used. The cells were measured using EPICS XL.MCL, and the results of measurement were analyzed using EPICS 32.

SMILES: O=P(O)(O)C(O)(Cn1ccnc1)P(=O)(O)O [ZOMETA ™, zoledronate sodium hydrate]
- ratio of antigen-specific CD8+ CTLs versus dendritic cells pulsed with peptides alone ([1]; co-pulse 0.01 μM ZOMETA and 2 μg/ml A27L): about 4 times
- Ratio (%) of disease antigen-specific CD8+ CTLs ([1]; immature dendritic cells, ZOMETA 0.01 μM and/or A27L 2 μg/ml, 7 days co-culture): 0.00%
- The number of IFN-γ producing cells in all of 2500 lymphocytes ([2]; Donor A, Lymphocytes + dendritic cells pulsed with peptides (re-stimulation)): 100
- The number of IFN-γ producing cells in all of 2500 lymphocytes ([2]; Donor A, Lymphocytes alone (no re-stimulation)): 4
- The number of IFN-γ producing cells in all of 2500 lymphocytes ([2]; Donor B, Lymphocytes + dendritic cells pulsed with peptides (re-stimulation)): 50
- The number of IFN-γ producing cells in all of 2500 lymphocytes ([2]; Donor B, Lymphocytes alone (no re-stimulation)): 0
- increase of tetramer-positive cells by the addition of ZOMETA ([3]; day 11, versus apoptotic cells alone): about 15 times
- Ratio of CD8+ CTLs (%), A27L-specific ([3]; day 11 of culture, ZOMETA 0.01 μM, apoptotic MART-1-positive melanoma cells): 0.14%
- ratio of antigen-specific CD8+ CTLs versus MDA-MB/CD80 cells pulsed with peptides alone [4]: about 6 times
- The number of CTLs ([5]; ZOMETA 0.01 μM): 10845
- The total number of cells ([5]; ZOMETA 0.01 μM): 2.01 × 10^6
- Ratio of CTLs (%) ([5]; ZOMETA 0.01 μM): 0.54%
- The number of CTLs ([5]; ZOMETA 0.1 μM): 12130
- The total number of cells ([5]; ZOMETA 0.1 μM): 2.17 × 10^6
- Ratio of CTLs (%) ([5]; ZOMETA 0.1 μM): 0.56%
- The number of CTLs ([5]; ZOMETA 1 μM): 11389
- The total number of cells ([5]; ZOMETA 1 μM): 1.96 × 10^6
- Ratio of CTLs (%) ([5]; ZOMETA 1 μM): 0.58%
- The number of CTLs ([5]; ZOMETA 5 μM): 21266
- The total number of cells ([5]; ZOMETA 5 μM): 2.84 × 10^6
- Ratio of CTLs (%) ([5]; ZOMETA 5 μM): 0.75%
- The number of CTLs ([5]; ZOMETA 20 μM): 21133
- The total number of cells ([5]; ZOMETA 20 μM): 2.94 × 10^6
- Ratio of CTLs (%) ([5]; ZOMETA 20 μM): 0.72%
- ratio of antigen-specific CD8+ CTLs versus dendritic cells pulsed with peptides alone ([5]; co-pulse ZOMETA 0 to 20 μM and BMLF1): about 3.2 times
